In one assay the test system is SK-OV-3. Kind of assay: Cytotoxicity against Homo sapiens (human) SKOV3 cells assessed as growth inhibition at 10 uM after 48 hr by coulter counter analysis. Format: functional. Particulars: SK-OV-3, 48 h, read-out: GI.
The next assay deals with CCRF-CEM. Kind of assay: Cytotoxicity against Homo sapiens (human) CCRF-CEM cells assessed as growth inhibition at 10 uM after 48 hr by coulter counter analysis. Format: functional. The conditions noted are these: read-out: GI.
The next assay deals with SF-295. Kind of assay: Cytotoxicity against Homo sapiens (human) SF295 cells assessed as growth inhibition at 10 uM after 48 hr by coulter counter analysis. Particulars: SF-295, 48 h, read-out: GI. In kind it is functional.
The next assay concerns NCI-H226. Kind of assay: Cytotoxicity against Homo sapiens (human) NCI-H226 cells assessed as growth inhibition at 10 uM after 48 hr by coulter counter analysis. In kind it is functional. The conditions noted are these: NCI-H226, 48 h, read-out: GI.
The next assay has as its system NCI-H460. Kind of assay: Cytotoxicity against Homo sapiens (human) NCI-H460 cells assessed as growth inhibition at 10 uM after 48 hr by coulter counter analysis. Format: functional. The conditions noted are these: NCI-H460, 48 h, read-out: GI.
In another assay the test system is OVCAR-3. Put plainly: Cytotoxicity against Homo sapiens (human) OVCAR3 cells assessed as growth inhibition at 10 uM after 48 hr by coulter counter analysis. Particulars: OVCAR-3, 48 h, read-out: GI. Format: functional.
Another assay has as its system CAKI-1. Put plainly: Cytotoxicity against Homo sapiens (human) Caki1 cells assessed as growth inhibition at 10 uM after 48 hr by coulter counter analysis. Particulars: CAKI-1, 48 h, read-out: GI. Format: functional.
The subject of another assay is Hs-578T. Put plainly: Cytotoxicity against Homo sapiens (human) Hs578T cells assessed as growth inhibition at 10 uM after 48 hr by coulter counter analysis. The conditions noted are these: read-out: GI. In kind it is functional.
In a further assay the test system is NCI-H23. Kind of assay: Cytotoxicity against Homo sapiens (human) NCI-H23 cells assessed as growth inhibition at 10 uM after 48 hr by coulter counter analysis. In kind it is functional. Particulars: NCI-H23, 48 h, read-out: GI.
For a further assay, the system named is 786-0. Kind of assay: Cytotoxicity against Homo sapiens (human) 786-0 cells assessed as growth inhibition at 10 uM after 48 hr by coulter counter analysis. The conditions noted are these: 786-0, 48 h, read-out: GI. In kind it is functional.
Another assay has as its system LOX IMVI. Put plainly: Cytotoxicity against Homo sapiens (human) LOXIMVI cells assessed as growth inhibition at 10 uM after 48 hr by coulter counter analysis. In kind it is functional. The conditions noted are these: read-out: GI.
Another assay relates to DU-145. Put plainly: Cytotoxicity against Homo sapiens (human) DU145 cells assessed as growth inhibition at 10 uM after 48 hr by coulter counter analysis. In kind it is functional. The conditions noted are these: DU-145, 48 h, read-out: GI.
For a further assay, the system named is IGROV-1. Kind of assay: Cytotoxicity against Homo sapiens (human) IGROV1 cells assessed as growth inhibition at 10 uM after 48 hr by coulter counter analysis. Format: functional. The conditions noted are these: IGROV-1, 48 h, read-out: GI.
A further assay concerns M14. Put plainly: Cytotoxicity against Homo sapiens (human) M14 cells assessed as growth inhibition at 10 uM after 48 hr by coulter counter analysis. Format: functional. The conditions noted are these: M14, 48 h, read-out: GI.
Assay [1] deals with NCI-H522. Kind of assay: Cytotoxicity against Homo sapiens (human) NCI-H522 cells assessed as growth inhibition at 10 uM after 48 hr by coulter counter analysis. The conditions noted are these: NCI-H522, 48 h, read-out: GI. Format: functional.
A further assay concerns T47D. Kind of assay: Cytotoxicity against Homo sapiens (human) T47D cells assessed as growth inhibition at 10 uM after 48 hr by coulter counter analysis. In kind it is functional. Particulars: read-out: GI.
In another assay the test system is HCT-116. Kind of assay: Cytotoxicity against Homo sapiens (human) HCT116 cells assessed as growth inhibition at 10 uM after 48 hr by coulter counter analysis. Format: functional. The conditions noted are these: HCT-116, 48 h, read-out: GI.
A further assay concerns SF-539. Kind of assay: Cytotoxicity against Homo sapiens (human) SF539 cells assessed as growth inhibition at 10 uM after 48 hr by coulter counter analysis. The conditions noted are these: SF-539, 48 h, read-out: GI. Format: functional.
A further assay relates to UACC-257. Kind of assay: Cytotoxicity against Homo sapiens (human) UACC257 cells assessed as growth inhibition at 10 uM after 48 hr by coulter counter analysis. Format: functional. Particulars: UACC-257, 48 h, read-out: GI.
For another assay, the system named is HL-60(TB). Put plainly: Cytotoxicity against Homo sapiens (human) HL-60(TB) cells assessed as growth inhibition at 10 uM after 48 hr by coulter counter analysis. In kind it is functional. Particulars: HL-60, 48 h, read-out: GI.
Another assay has as its system MOLT-4. Kind of assay: Cytotoxicity against Homo sapiens (human) MOLT4 cells assessed as growth inhibition at 10 uM after 48 hr by coulter counter analysis. Particulars: MOLT-4, 48 h, read-out: GI. In kind it is functional.
Assay [2] deals with NCI-H522. Put plainly: Cytotoxicity against Homo sapiens (human) NCI-H522 cells at 10 uM after 48 hr by coulter counter analysis. Format: functional, cell-based.

The source made the active and inactive calls. The rule behind the calls is not given here.

Take `O=c1c2ccccc2nc(SCc2nnc(S)n2-c2ccccc2)n1CCc1ccccc1`: the inhibition of growth at 10 µM with SK-OV-3 is less than 10%; in the assay on CCRF-CEM, 28%; in the assay on SF-295, 12%; in the assay with NCI-H226, less than 10%; with NCI-H460, less than 10%; in the assay on OVCAR-3, less than 10%. Moreover, the inhibition of growth at 10 µM was 17% in the assay on CAKI-1; less than 10% in the assay on Hs-578T; less than 10% in the assay with NCI-H23; less than 10% in the assay on 786-0; less than 10% with LOX IMVI; less than 10% with DU-145. The inhibition of growth at 10 µM was 16% with IGROV-1; less than 10% in the assay on M14; less than 10% with NCI-H522 [1]; 38% in the assay on T47D; less than 10% in the assay with HCT-116; less than 10% with SF-539.
With `COc1ccc(-n2c(S)nnc2CSc2nc3ccccc3c(=O)n2CCc2ccccc2)cc1`, the inhibition of growth at 10 µM in the assay on SK-OV-3 is less than 10%; in the assay on CCRF-CEM, 13%; in the assay on SF-295, 12%; in the assay on NCI-H226, less than 10%; with NCI-H460, less than 10%; in the assay on OVCAR-3, less than 10%. The inhibition of growth at 10 µM with CAKI-1 was 17%; with UACC-257 it was less than 10%; in the assay on Hs-578T it was less than 10%; with NCI-H23, less than 10%; in the assay with 786-0 it was less than 10%; in the assay with LOX IMVI, less than 10%. Moreover, the inhibition of growth at 10 µM in the assay with DU-145 is less than 10%; with IGROV-1, 16%; in the assay on M14 it was less than 10%; in the assay on NCI-H522 [1], less than 10%; with T47D, less than 10%; with HCT-116, less than 10%. The inhibition of growth at 10 µM with SF-539 was less than 10%.
With `CCn1c(S)nnc1CSc1nc2ccccc2c(=O)n1CCc1ccccc1`, the inhibition of growth at 10 µM in the assay on SK-OV-3 was less than 10%; in the assay with CCRF-CEM, 27%; in the assay on SF-295, less than 10%; in the assay with HL-60(TB), 30%; in the assay on NCI-H226, 35%; in the assay with NCI-H460 it was 31%. In addition, the inhibition of growth at 10 µM was less than 10% in the assay with OVCAR-3; less than 10% in the assay with CAKI-1; 12% with UACC-257; less than 10% in the assay with Hs-578T; less than 10% in the assay on NCI-H23; 19% with 786-0. Also, the inhibition of growth at 10 µM with LOX IMVI is 26%; in the assay on DU-145, less than 10%; in the assay with IGROV-1, less than 10%; in the assay on M14, 12%; with MOLT-4, 29%; in the assay on T47D, 27%. The inhibition of growth at 10 µM in the assay on HCT-116 is 35%; with SF-539 it was less than 10%. In the assay with NCI-H522 [2], the outcome was Active.
`O=c1c2ccccc2[nH]c(=S)n1CCc1ccccc1`: the inhibition of growth at 10 µM with SK-OV-3 is less than 10%; in the assay on CCRF-CEM, 16%; with SF-295 it was 13%; with HL-60(TB) it was 11%; in the assay with NCI-H226, less than 10%; in the assay on NCI-H460 it was less than 10%. Also, the inhibition of growth at 10 µM in the assay with OVCAR-3, in the assay with CAKI-1, with UACC-257, in the assay with Hs-578T, in the assay with NCI-H23 and with 786-0 was less than 10% each time. The inhibition of growth at 10 µM with LOX IMVI was less than 10%; in the assay on DU-145 it was less than 10%; in the assay with IGROV-1, less than 10%; in the assay with M14, less than 10%; in the assay with NCI-H522 [1] it was less than 10%; in the assay on MOLT-4 it was 23%. The inhibition of growth at 10 µM in the assay with T47D was less than 10%; with HCT-116, 18%; in the assay on SF-539, less than 10%.

For the origin of these results see ChEMBL document CHEMBL3044826, “Design, synthesis and biological evaluation of some novel substituted 2-mercapto-3-phenethylquinazolines as antitumor agents” (2013).
